# Data from patent publication US20220324909A1, “THERAPEUTIC PEPTIDES” (COHBAR, INC., priority 2019, published 2022).
# Non-standard residues stand in square brackets, D forms with d. No end group written: not given here.
# Experiments:
# C2C12 cells [1] = experiment: Glucose utilization in cultured C2C12 cells and insulin dependence; type: cell-based, mouse; conditions: 22 h; for Glucose Utilization, Percent of Control Activity No Insulin: peptide 10 μM alone, glucose in medium relative to untreated cells; for Glucose Utilization, Percent of Control Activity With Insulin: peptide 10 μM with 5-20 nM insulin, glucose in medium relative to insulin treated cells
# Source text: The effect of the peptides on glucose homeostasis can be assessed using an assay to monitor glucose utilization by cultured cells such as mouse myotubes. […] C2C12 mouse muscle cell line was purchased from Millipore Sigma (Saint Louis, Mo.). […] Three days after plating the medium was removed and with Differentiation Medium (DMEM/low glucose (1 g/L)+2% Horse Serum+antibiotics) added. […] After 5 days of differentiation, the medium was removed from myotube cultures and replaced with Assay Medium (DMEM/low glucose (1 g/L)+antibiotics). […] Following the 5 h incubation the medium was removed and fresh Assay Medium containing compounds added; 10 μM peptide in absence or presence of 5-20 nM insulin, or 1 mM metformin as a potent stimulator of glucose utilization. […] Following 22 h incubation, conditioned medium from each well was transferred to a fresh 96-well plate. Glucose concentrations in the medium were determined using a Glucose Assay kit (Abcam; Cambridge, Mass.) according to the manufacturer's instructions; absorbance measured using a Cytation 3 plate reader at 570 nm (BioTek, Winooski, Vt.). Absorbance values were expressed as percent control activity relative to untreated treated cells (no insulin) for 10 μM peptide alone or 5-20 nM insulin treated cells (with insulin) for 10 μM peptide in presence of 5-20 nM insulin. Untreated cells were used as reference for basal glucose utilization. The relative standard deviation from plate to plate of untreated control was <10%. Metformin at 1 mM was used as a potent control for increasing glucose utilization. Glucose levels for metformin (1 mM) treatment were <10% of the untreated control value. Data are presented as averages values from 2-3 independent experiments with each data point performed in triplicate.
# C2C12 cells [2] = experiment: ATP levels in cultured C2C12 cells (CellTiter-Glo); type: cell-based, mouse; conditions: peptide 10 μM, 3 days with readdition every 24 hours, relative to 0.1% DMSO control
# Experimental: The effect of the peptides on cellular metabolism can be assessed using an assay of ATP levels in cultured cells such as mouse myoblast cells. Peptides were initially prepared as 10 mM stock in DMSO, diluted to 1 mM in H2O, and used at a final concentration of 10 μM (0.1% DMSO). […] Lovastatin was prepared as 10 mM stock in 70% Ethanol and used at final concentration of 10 μM containing 0.1% DMSO. CellTiter-Glo® Assay kit was purchased from Promega (Madison, Wis.). […] C2C12 cells were grown in DMEM medium supplemented with 20% FBS with 100 IU/ml penicillin and 100 μg/ml streptomycin. […] C2C12 cells were seeded at 800 cells per well on 96-well plates. […] ATP levels were determined using a CellTiter-Glo Assay kit according to the manufacturer's instructions. Luminescence for each sample well on the plate was measured using a Cytation 3 plate reader (BioTek, Winooski, Vt.). Activity was calculated relative to 0.1% DMSO treated control. The relative standard deviation of the result for the 0.1% DMSO treated control was <5%. […] ATP levels for treatment with lovastatin (10 μM) were <50% of the 0.1% DMSO treated control value.
# 3T3-L1 mouse adipocytes [3] = experiment: Free fatty acid levels in cultured 3T3-L1 mouse adipocytes and insulin dependence (Example 17); type: cell-based; conditions: isoproterenol 0.1 nM; for Free Fatty Acid Levels, Percent of Isoproterenol Control Activity No Insulin: peptide 10 μM alone, relative to isoproterenol treated cells; for Free Fatty Acid Levels, Percent of Isoproterenol Control Activity With Insulin: peptide 10 μM with 0.25 nM insulin, relative to 0.25 nM insulin treated cells
# 3T3-L1 mouse adipocytes [4] = experiment: Free fatty acid levels in 3T3-L1 mouse adipocytes (Example 12, 10 μM); type: cell-based; conditions: peptide 10 μM, 20-22 h then 3 h with isoproterenol 1 nM
# Experimental: The effect of the peptides on fatty acid metabolism can be assessed using an assay of free fatty acid levels in cultured cells such as mouse adipocytes. Peptides were initially prepared as 10 mM stock in DMSO, diluted to 1 mM in H2O, and used at a final concentration of 10 μM (0.1% DMSO). […] Insulin at 100 nM was added to control wells.
# C2C12 cells [5] = experiment: Cellular ROS levels induced by TBHP in C2C12 cells (DCFDA); type: cell-based, mouse; conditions: peptide 10 μM 18-20 hours, then TBHP 100 μM 1 hour; relative to TBHP control
# Experimental: The protective or synergistic effect of the peptides on cellular levels of reactive oxygen species (ROS) induced by oxidative stress can be assessed using an assay of ROS in cultured cells such as mouse myoblasts exposed to a suitable oxidative stress. Peptides were initially prepared as 10 mM stock in DMSO, diluted to 1 mM in H2O, and added at a final concentration of 10 μM (0.1% DMSO). […] TBHP was used at final concentration of 100 μM. Sulforaphane at final concentration of 10 μM was used as a protective control against TBHP induced ROS production. […] C2C12 cells were grown in DMEM supplemented with 20% FBS with 100 IU/ml penicillin and 100 μg/ml streptomycin. […] C2C12 cells were seeded at 7,500 cells per well on 96-well plates. […] After 18-20 hours of incubation the cells were loaded with DCFDA for 45 min. TBHP at 100 μM was then added to the appropriate wells for 1 hour. ROS activity was determined using a DCFDA Cellular ROS Detection Assay kit (Abcam, Cambridge, Mass.) according to the manufacturer's instructions. Fluorescence in each sample well on the plate was measured using a Cytation 3 plate reader at Ex/Em=485/535 nm (BioTek, Winooski, Vt.). Activity was calculated relative to TBHP control. The relative standard deviation of the sulforaphane control was <20%. The ROS level produced by the sulforaphane control in the presence of TBHP was 52% of the TBHP control.
Molecule,"Glucose Utilization, Percent of Control Activity No Insulin (C2C12 cells [1]) [%]","Glucose Utilization, Percent of Control Activity With Insulin (C2C12 cells [1]) [%]","ATP Levels, Percent of Control Activity (C2C12 cells [2]) [%]","Free Fatty Acid Levels, Percent of Isoproterenol Control Activity No Insulin (3T3-L1 mouse adipocytes [3]) [%]","Free Fatty Acid Levels, Percent of Isoproterenol Control Activity With Insulin (3T3-L1 mouse adipocytes [3]) [%]","Free Fatty Acid Levels, Percent of Isoproterenol Control Activity (3T3-L1 mouse adipocytes [4]) [%]","Cellular ROS Levels Induced by TBHP, Percent of Control (C2C12 cells [5]) [%]"
14 (RRMMGMVFQCLEG[dA]) [compound 14],102.4,112.3,102.1,100,51.0,46.5,105.1
12 (RRMMGMVEQCLCG[dA]; cysteine pairing not given here) [compound 12],102.3,84.5,102.6,103,54.6,51.3,105
8 (RRMMGMVFQCLCG[dA]; cysteine pairing not given here) [compound 8],90.8,85.5,99.5,106,57.8,34.7,102.1
11 (RRMMGMVAQCLCGA) [compound 11],107.2,84.5,98.0,104,58.5,59.2,100.6
10 (RRMMGMVYQCLCG[dA]; cysteine pairing not given here) [compound 10],102.6,76.3,100.9,97.9,48.7,24.9,102.3
16 (RRMMGMVFQCLSG[dA]) [compound 16],99.7,88.4,94.7,110,63.0,58.8,106.6
13 (RRMMGMVFQELCG[dA]) [compound 13],104.4,97.8,102.8,105,56.4,66.0,106.8
17 (RRMMGMVFQSLSG[dA]) [compound 17],102.6,96.2,100.0,98.4,87.7,77.9,113.6
18 (RRXXGXVFQCLCGA; (3)..(3) Xaa is Norleucine; (4)..(4) Xaa is Norleucine; (6)..(6) Xaa is Norleucine; (14)..(14) D-Ala) [compound 18],103.6,122.1,95.5,110,81.1,77.3,109.4
19 (RRMVFQCLCG[dA]; cysteine pairing not given here) [compound 19],100.1,76.5,93.6,105,79.0,31.0,92
CSCC[C@H](NC(=O)CNC(=O)[C@H](CCSC)NC(=O)[C@H](CCSC)NC(=O)[C@H](CCCNC(=N)N)NC(=O)[C@H](CCCNC(=N)N)NC(=O)[C@@H](N)CCSC)C(=O)N[C@H](C(=O)N[C@@H](Cc1ccccc1)C(=O)N[C@@H](CCC(N)=O)C(=O)N[C@@H](CS)C(=O)N[C@@H](CC(C)C)C(=O)N[C@@H](CS)C(=O)NCC(=O)N[C@@H](CC(C)C)C(=O)O)C(C)C [compound 7],98.1,100.7,106.6,102,71.3,34.6,98.6
